Where two headings read alike, the source gives them in different places.

The text below walks through data of US9434711B2 (Janssen Pharmaceutica, NV, priority 2007, dated 2016).

The target in the assay is canine TRPM8 (Canis lupus familiaris, UniProt Q1A7N1). The assay can be described thus: In Vitro Canine TRPM8 Functional Assay (Ca2+ fluorescence, icilin activation). The class given is cell-based. Conditions: for IC50: read-out: IC50; for inhibition at 0.2 µM: read-out: % Inh @ 0.2; for inhibition at 0.5 µM: compound at 0.5 μM, read-out: % Inh @ 0.5. The procedure, abridged:
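Cells (HEK293, stable canine TRPM8) are seeded 24 h before assay. They are then dye-loaded with Calcium 3 at 37 °C followed by room temperature. Compound is added and monitored for 5 min, after which icilin (~80% maximal response) is added.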

Where [1] appears, read: HEK293 cells stably expressing canine TRPM8, icilin activation, eight-point dose-response.
Where [2] appears, read: compound at 0.2 μM, canine TRPM8, icilin activation.
[3] abbreviates: canine TRPM8, icilin activation.
Setting [4] is: 0.2 μM compound, HEK293 cells stably expressing canine TRPM8, icilin activation.

Chain of canine TRPM8 (Q1A7N1 1-1104): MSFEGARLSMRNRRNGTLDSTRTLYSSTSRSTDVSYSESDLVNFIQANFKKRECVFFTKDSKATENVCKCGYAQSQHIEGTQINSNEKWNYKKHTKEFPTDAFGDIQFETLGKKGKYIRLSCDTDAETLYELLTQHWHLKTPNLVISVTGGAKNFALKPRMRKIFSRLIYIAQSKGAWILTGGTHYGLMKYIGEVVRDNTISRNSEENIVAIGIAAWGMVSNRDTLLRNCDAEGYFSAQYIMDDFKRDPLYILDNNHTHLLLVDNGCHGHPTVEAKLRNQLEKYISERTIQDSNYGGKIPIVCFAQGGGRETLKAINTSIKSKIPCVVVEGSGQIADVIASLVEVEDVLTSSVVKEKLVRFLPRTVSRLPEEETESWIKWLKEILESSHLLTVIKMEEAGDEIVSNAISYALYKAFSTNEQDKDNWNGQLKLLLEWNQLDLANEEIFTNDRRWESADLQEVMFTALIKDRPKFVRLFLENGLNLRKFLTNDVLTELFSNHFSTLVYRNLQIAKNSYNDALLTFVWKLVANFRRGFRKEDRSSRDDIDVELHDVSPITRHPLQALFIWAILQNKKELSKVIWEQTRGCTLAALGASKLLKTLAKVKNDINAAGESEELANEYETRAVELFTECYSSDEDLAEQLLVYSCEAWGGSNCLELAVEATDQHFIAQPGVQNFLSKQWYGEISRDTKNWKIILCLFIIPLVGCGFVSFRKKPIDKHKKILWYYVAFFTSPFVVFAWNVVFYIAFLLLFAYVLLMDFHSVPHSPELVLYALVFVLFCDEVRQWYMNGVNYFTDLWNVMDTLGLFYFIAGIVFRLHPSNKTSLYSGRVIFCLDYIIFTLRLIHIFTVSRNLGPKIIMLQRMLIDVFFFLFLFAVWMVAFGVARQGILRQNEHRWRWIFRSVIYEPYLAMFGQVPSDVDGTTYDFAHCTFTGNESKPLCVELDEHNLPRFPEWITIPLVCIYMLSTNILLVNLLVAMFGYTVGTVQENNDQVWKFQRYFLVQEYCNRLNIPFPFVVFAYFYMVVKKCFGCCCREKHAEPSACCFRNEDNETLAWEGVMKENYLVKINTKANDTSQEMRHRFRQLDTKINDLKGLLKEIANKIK

As to `Nc1ccc(S(=O)(=O)N(CCC(F)(F)F)c2sc3ccccc3c2Br)cc1` [Compound 587, 4-Amino-N-(3-bromo-benzo[b]thiophen-2-yl)-N-(3,3,3-trifluoro-propyl)-benzenesulfonamide], the IC50 under setting [1] was determined as 3.9 nM. Further, under setting [2], the inhibition at 0.2 µM is 100%. Turning to `O=C(O)c1ccc(S(=O)(=O)N(CCC(F)(F)F)c2cc3ccccc3s2)c(F)c1` [Compound 639, N-(3-Benzo[b]thiophen-2-yl)-N-(3,3,3-trifluoro-propyl)-2-fluoro-4-carboxy-benzenesulfonamide], under setting [1], the IC50 was determined as 128 nM. In addition, the “% Inh @ 0.2 (μM)” value under setting [2] is reported as 84%. Turning to `O=S(=O)(c1ccccc1)N(Cc1ccncc1)c1cc2ccccc2s1` [Compound 54, N-(Benzo[b]thiophen-2-yl)-N-(pyridin-4-ylmethyl)-benzenesulfonamide], the inhibition at 0.5 µM under setting [3] came to 65%. Regarding `O=S(=O)(c1ccc(-c2nnn[nH]2)cc1)N(CCC(F)(F)F)c1sc2ccccc2c1Cl` [Compound 636, N-(3-Chloro-benzo[b]thiophen-2-yl)-N-(3,3,3-trifluoro-propyl)-4-(1H-tetrazol-5-yl)-benzenesulfonamide], the IC50 under setting [1] stood at 46 nM. Besides, the inhibition at 0.2 µM under setting [2] worked out at 103%.

Take `CCCCN(C1=C(OC)c2ccccc2S1(=O)=O)S(=O)(=O)c1ccc(C(=O)O)cc1` [Compound 434, N-(Butyl)-N-(3-methoxy-1,1-dioxo-1H-benzo[b]thiophen-2-yl)-4-carboxy-benzenesulfonamide]: the IC50 under setting [1] came out at 17 nM. Under setting [2], the inhibition at 0.2 µM is 90%. `CS(=O)(=O)Nc1ccc(S(=O)(=O)N(CCCCC(F)(F)F)c2sc3ccccc3c2Cl)cc1` [Compound 679, N-(3-Chloro-benzo[b]thiophen-2-yl)-4-methanesulfonylamino-N-(5,5,5-trifluoro-pentyl)-benzenesulfonamide]: the IC50 under setting [1] is 57.9 nM. The inhibition at 0.2 µM under setting [2] amounted to 100%. The like results for `CS(=O)(=O)Nc1ccc(S(=O)(=O)N(Cc2ccc(F)c(C(F)(F)F)c2)c2sc3ccccc3c2Br)cc1` [Compound 660, N-(3-Bromo-benzo[b]thiophen-2-yl)-N-(4-fluoro-3-trifluoromethyl-benzyl)-4-methanesulfonylamino-benzenesulfonamide] were, in that order, 11.2 nM and 100%.

`CC(=O)c1ccc(S(=O)(=O)N(CCCC(F)(F)F)c2sc3ccccc3c2C)cc1` [Compound 351, N-(3-Methyl-benzo[b]thiophen-2-yl)-N-(4,4,4-trifluoro-butyl)-4-acetyl-benzenesulfonamide]: under setting [1], the IC50 is 21.2 nM. The inhibition at 0.2 µM under setting [2] is 97%. With `Cc1c(N(CCN2CCCCC2)S(=O)(=O)c2ccccc2)sc2ccccc12` [Compound 96, N-(3-Methyl-benzo[b]thiophen-2-yl)-N-(2-piperidin-1-yl-ethyl)-benzenesulfonamide], the IC50 under setting [1] came to 4 nM. Moreover, the inhibition at 0.2 µM under setting [2] stood at 98%.

As to `O=S(=O)(c1ccccc1)N(CCc1ccccc1)c1sc2ccccc2c1Cl` [Compound 85, N-(3-Chloro-benzo[b]thiophen-2-yl)-N-(phenethyl)-benzenesulfonamide], under setting [3], the inhibition at 0.5 µM worked out at 100%. On to `COC(=O)c1cccc(S(=O)(=O)N(Cc2ccc(F)c(C(F)(F)F)c2)c2sc3ncccc3c2Cl)c1` [Compound 816, N-(3-Chloro-thieno[2,3-b]pyridin-2-yl)-N-(4-fluoro-3-trifluoromethyl-benzyl)-3-carbomethoxy-benzenesulfonamide], for which the inhibition at 0.2 µM under setting [4] is 15%. As to `CS(=O)(=O)Nc1ccc(S(=O)(=O)N(Cc2ccc(F)c(C(F)(F)F)c2)c2cc3ccccc3s2)cc1` [Compound 652, N-(Benzo[b]thiophen-2-yl)-N-(4-fluoro-3-trifluoromethyl-benzyl)-4-methanesulfonylamino-benzenesulfonamide], under setting [1], the IC50 was 85 nM. Also, the inhibition at 0.2 µM under setting [2] was 102%. `Cc1c(N(Cc2ccc(F)c(F)c2)S(=O)(=O)c2cc3ccccc3s2)sc2ccccc12` [Compound 18, N-(3,4-Difluoro-benzyl)-N-(3-methyl-benzo[b]thiophen-2-yl)-benzo[b]thiophene-2-sulfonamide]: the IC50 under setting [1] was 81 nM. Further, the inhibition at 0.5 µM under setting [3] came to 94%. As to `Cc1c(N(CCCCC(F)(F)F)S(=O)(=O)c2ccc(-c3n[nH]c(=O)[nH]3)cc2)sc2ccccc12` [Compound 811, N-(3-Methyl-benzo[b]thiophen-2-yl)-N-(5,5,5-trifluoro-pentyl)-4-(5-oxo-4,5-dihydro-1H-[1,2,4]triazol-3-yl)-benzenesulfonamide], the inhibition at 0.2 µM under setting [4] came to 103%. In addition, the IC50 (HEK293 cells stably expressing canine TRPM8, icilin activation, average of two or more determinations) is 3.7 nM. Turning to `Cc1c(N(Cc2ccc(F)c(F)c2)S(C)(=O)=O)sc2ccccc12` [Compound 367, N-(3,4-Difluoro-benzyl)-N-(3-methyl-benzo[b]thiophen-2-yl)-methanesulfonamide], the IC50 under setting [1] was found to be 10 nM. In addition, the inhibition at 0.2 µM under setting [2] was found to be 91%.

`N#Cc1cccc(S(=O)(=O)N(CCC2CC2)c2cc3ccccc3s2)c1` [Compound 575, N-(Benzo[b]thiophen-2-yl)-N-(2-cyclopropyl-ethyl)-3-cyano-benzenesulfonamide]: the inhibition at 0.2 µM under setting [2] was 15%. For `O=C(O)c1ccc(S(=O)(=O)N(CCC(F)(F)F)c2sc3ccccc3c2Br)c(F)c1` [Compound 710, N-(3-Bromo-benzo[b]thiophen-2-yl)-N-(3,3,3-trifluoro-propyl)-2-fluoro-4-carboxy-benzenesulfonamide], the IC50 under setting [1] stood at 7 nM. Besides, under setting [2], the inhibition at 0.2 µM is 102%. On to `O=S(=O)(c1cccs1)N(Cc1ccc(F)c(C(F)(F)F)c1)c1sc2ccccc2c1Br` [Compound 184, N-(3-Bromo-benzo[b]thiophen-2-yl)-N-(4-fluoro-3-trifluoromethyl-benzyl)-thiophene-2-sulfonamide], for which, under setting [1], the IC50 is 3.9 nM. Also, the inhibition at 0.5 µM under setting [3] was 97%. As for `CN1CCN(C2=C(N(Cc3ccc(F)c(C(F)(F)F)c3)S(=O)(=O)c3ccccc3)S(=O)(=O)c3ccccc32)CC1` [Compound 649, N-(4-Fluoro-3-trifluoromethyl-benzyl)-N-[3-(4-methyl-piperazin-1-yl)-1,1-dioxo-benzo[b]thiophen-2-yl]-benzenesulfonamide], the inhibition at 0.2 µM under setting [2] was determined as 26%. For the compound `O=S(=O)(c1ccccc1)N(CCc1ccccc1)c1sc2ccccc2c1Br` [Compound 233, N-(3-Bromo-benzo[b]thiophen-2-yl)-N-(phenethyl)-benzenesulfonamide], the 50% inhibitory concentration (IC50) under setting [1] is 22 nM. The inhibition at 0.5 µM under setting [3] was found to be 93%. The like results for `O=S(=O)(c1ccccc1)N(Cc1ccc(Cl)cc1)c1sc2ccccc2c1Cl` [Compound 158, N-(3-Chloro-benzo[b]thiophen-2-yl)-N-(4-chloro-benzyl)-benzenesulfonamide] were, in that order, 10.4 nM and 94%. In the case of `O=C(O)c1ccccc1S(=O)(=O)N(Cc1ccc(F)c(C(F)(F)F)c1)c1sc2ccccc2c1Br` [Compound 298, N-(3-Bromo-benzo[b]thiophen-2-yl)-N-(4-fluoro-3-trifluoromethyl-benzyl)-2-carboxy-benzenesulfonamide], under setting [2], the inhibition at 0.2 µM amounted to 18%. Consider `O=S(=O)(c1cccnc1)N(Cc1ccc(F)c(C(F)(F)F)c1)c1sc2ccccc2c1Cl` [Compound 189, N-(3-Chloro-benzo[b]thiophen-2-yl)-N-(4-fluoro-3-trifluoromethyl-benzyl)-pyridin-3-yl-sulfonamide], for which the IC50 under setting [1] amounted to 11.6 nM. Besides, under setting [2], the inhibition at 0.2 µM stood at 100%.

Broadly, the IC50 is the concentration that inhibits the measured activity by half.
